Results taken from PubChem BioAssay (NCI).
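Five compound concentrations were applied to cells in 96-well plates for 48 hours; endpoints were derived by simple linear interpolation of the resulting dose-response curve. The concentration for 50% growth inhibition is given as GI50. TGI denotes the concentration required for complete inhibition of growth.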

What was measured:
Experiment in all cases: NCI tumour cell line growth inhibition, 48 h
[1] = tested on: HCC-2998 colon
[2] = tested on: 786-0 renal
[3] = tested on: CAKI-1 renal
[4] = tested on: M14 melanoma
[5] = tested on: A549 NSCLC
[6] = tested on: SF-268 CNS
[7] = tested on: HOP-62 NSCLC
[8] = tested on: UACC-257 melanoma
[9] = tested on: LOX IMVI melanoma
[10] = tested on: SR leukemia
[11] = tested on: NCI-H460 lung
[12] = tested on: HL-60(TB) leukemia
[13] = tested on: OVCAR-4 ovarian
[14] = tested on: HCT-15 colon
[15] = tested on: HT29 colon
[16] = tested on: DU-145 prostate
[17] = tested on: SF-539 CNS
[18] = tested on: OVCAR-3 ovarian
[19] = tested on: HCT-116 colon
[20] = tested on: A498 renal
[21] = tested on: EKVX NSCLC
[22] = tested on: SN12C renal
[23] = tested on: HS 578T breast
[24] = tested on: BT-549 breast
[25] = tested on: OVCAR-5 ovarian
[26] = tested on: COLO 205 colon
[27] = tested on: SW-620 colon
[28] = tested on: K-562 leukemia
[29] = tested on: MDA-MB-435
[30] = tested on: MDA-MB-231 breast
[31] = tested on: NCI-H23 lung
[32] = tested on: MCF7 breast
[33] = tested on: SNB-19 CNS
[34] = tested on: MOLT-4 leukemia
[35] = tested on: HOP-92 NSCLC
[36] = tested on: SK-MEL-5 melanoma
[37] = tested on: MDA-MB-468 breast
[38] = tested on: PC-3 prostate
[39] = tested on: SK-MEL-28 melanoma
[40] = tested on: NCI-H226 lung
[41] = tested on: MALME-3M melanoma
[42] = tested on: SF-295 CNS
[43] = tested on: SK-MEL-2 melanoma
[44] = tested on: RPMI-8226 leukemia
[45] = tested on: UACC-62 melanoma
[46] = tested on: SK-OV-3 ovarian
[47] = tested on: CCRF-CEM leukemia
[48] = tested on: ACHN renal
[49] = tested on: KM12 colon
[50] = tested on: OVCAR-8 ovarian
[51] = tested on: NCI-H522 lung
[52] = tested on: IGROV1 ovarian
[53] = tested on: RXF 393 renal
[54] = tested on: U251 CNS
[55] = tested on: UO-31 renal
[56] = tested on: TK-10 renal
[57] = tested on: T-47D breast
[58] = tested on: SNB-75 CNS

CN(C)c1nc(NCCNS(=O)(=O)c2ccc(C(=O)/C=C/c3ccccc3)cc2)nc(N2CCOCC2)n1
GI50 [1]: 16.7 µM
TGI [1]: 31.1 µM
GI50 [2]: 14.8 µM
TGI [2]: 29.1 µM
GI50 [3]: 12.2 µM
TGI [3]: 24.6 µM
GI50 [4]: 14.6 µM
TGI [4]: 31.6 µM
GI50 [5]: 13.6 µM
TGI [5]: 28.3 µM
GI50 [6]: 13.7 µM
TGI [6]: 31 µM
GI50 [7]: 16.4 µM
TGI [7]: 32.1 µM
GI50 [8]: 17.9 µM
TGI [8]: 32.3 µM
GI50 [9]: 1.97 µM
TGI [9]: 4.13 µM
GI50 [10]: 3.2 µM
TGI [10]: > 100 µM
GI50 [11]: 18.2 µM
TGI [11]: 38.3 µM
GI50 [12]: 6.18 µM
TGI [12]: 42.1 µM
GI50 [13]: 14.3 µM
TGI [13]: 27.8 µM
GI50 [14]: 5.21 µM
TGI [14]: 20.5 µM
GI50 [15]: 3.8 µM
TGI [15]: 13.1 µM
GI50 [16]: 15.1 µM
TGI [16]: 28.4 µM
GI50 [17]: 11.1 µM
TGI [17]: 24.3 µM
GI50 [18]: 15.3 µM
TGI [18]: 28.6 µM
GI50 [19]: 1.82 µM
TGI [19]: 3.59 µM
GI50 [20]: 14.6 µM
TGI [20]: 27.8 µM
GI50 [21]: 14.7 µM
TGI [21]: 30.6 µM
GI50 [22]: 14.6 µM
TGI [22]: 28.6 µM
GI50 [23]: 17.1 µM
TGI [23]: 64.4 µM
GI50 [24]: 11.2 µM
TGI [24]: 23.7 µM
GI50 [25]: 12.1 µM
TGI [25]: 26 µM
GI50 [26]: 20.2 µM
TGI [26]: 40.3 µM
GI50 [27]: 3.41 µM
TGI [27]: 12.7 µM
GI50 [28]: 2.19 µM
TGI [28]: > 100 µM
GI50 [29]: 14.7 µM
TGI [29]: 28.3 µM
GI50 [30]: 13.9 µM
TGI [30]: 27.6 µM
GI50 [31]: 16 µM
TGI [31]: 30.4 µM
GI50 [32]: 3.49 µM
TGI [32]: 13.8 µM
GI50 [33]: 14.8 µM
TGI [33]: 29.1 µM
GI50 [34]: 4.27 µM
TGI [34]: > 100 µM
GI50 [35]: 12.2 µM
TGI [35]: 26.6 µM
GI50 [36]: 15.9 µM
TGI [36]: 29.4 µM
GI50 [37]: 4.17 µM
TGI [37]: 17.7 µM
GI50 [38]: 8.63 µM
TGI [38]: 23.6 µM
GI50 [39]: 17.2 µM
TGI [39]: 33.1 µM
GI50 [40]: 13.5 µM
TGI [40]: 31.7 µM
GI50 [41]: 15.2 µM
TGI [41]: 29.3 µM
GI50 [42]: 15.6 µM
TGI [42]: 30.4 µM
GI50 [43]: 15.3 µM
TGI [43]: 29.5 µM
GI50 [44]: 3.25 µM
TGI [44]: 11.4 µM
GI50 [45]: 12 µM
TGI [45]: 25 µM
GI50 [46]: 15.6 µM
TGI [46]: 29.8 µM
GI50 [47]: 4.41 µM
TGI [47]: 75.9 µM
GI50 [48]: 18.2 µM
TGI [48]: 36.3 µM
GI50 [49]: 2 µM
TGI [49]: 4.23 µM
GI50 [50]: 16.4 µM
TGI [50]: 31.8 µM
GI50 [51]: 13.6 µM
TGI [51]: 27.1 µM
GI50 [52]: 15.3 µM
TGI [52]: 31.9 µM
GI50 [53]: 7.87 µM
TGI [53]: 22.8 µM
GI50 [54]: 11.7 µM
TGI [54]: 25.9 µM
GI50 [55]: 11.2 µM
TGI [55]: 25 µM
GI50 [56]: 16.4 µM
TGI [56]: 30.2 µM
GI50 [57]: 16 µM
TGI [57]: 37.4 µM
GI50 [58]: 5.49 µM
TGI [58]: 19.8 µM
